Data on 18 compounds can be found in the SangsterLogP compilation.

Structures are written as SMILES.

The data set is described as follows: method code SF-AS, from DOI: 10.1021/jf00106a008. The note with it: pH 7.3.
In the case of `CCCOn1c(=O)c(Br)c(C)n(C)c1=O`, the logD (as a rule, the decadic logarithm of the distribution of all forms, ionised or not, between an organic phase and buffer at a given pH) turned out to be 0.72.
In the case of `CCCOn1c(=O)cc(C)[nH]c1=O` it was 0.3.
In the case of `Cc1[nH]c(=O)n(OC(C)C)c(=O)c1Br`, the logD came to 0.45.
Consider `CCCCCCCCOn1c(=O)[nH]c(C)c(Br)c1=O`, for which the logD was determined as 3.38.
For `CCCCOn1c(=O)[nH]c(C)c(Br)c1=O`, the logD came to 1.26.
The figure for `Cc1[nH]c(=O)n(OCCCl)c(=O)c1Br` is 0.3; for `CCOn1c(=O)[nH]c(C)c(Br)c1=O` it is 0.11.
The figure for `CCCOn1c(=O)[nH]c(C)c(SC#N)c1=O` is -0.22.
As to `C=CCOn1c(=O)[nH]c(C)c(Br)c1=O`, the logD is 0.32.
The figure for `Cc1[nH]c(=O)n(OCC(C)C)c(=O)c1Br` is 1.23; for `CCCCCCOn1c(=O)[nH]c(C)c(Br)c1=O` it is 2.48.
The figure for `CCCCCOn1c(=O)[nH]c(C)c(Br)c1=O` is 1.69; for `CCC(C)On1c(=O)[nH]c(C)c(Br)c1=O` (stereo not drawn) it is 1.11.
Regarding `C#CCOn1c(=O)[nH]c(C)c(Br)c1=O`, the logD is -0.1.
In the case of `CCCOn1c(=O)[nH]c(C)c(Br)c1=O` it was 0.76; in that of `COn1c(=O)[nH]c(C)c(Br)c1=O`, -0.3; in that of `CCCOn1c(=O)[nH]c(CCC)c(Br)c1=O`, 1.73.
In turn, `CCCCCCCCCCOn1c(=O)[nH]c(C)c(Br)c1=O` came in with a logD of 4.65.
